Earlier results in patent US20090041835A1, “METHOD OF INHIBITING LEAKAGE OF DRUG ENCAPSULATED IN LIPOSOMES” (KYOWA HAKKO KOGYO CO., LTD., priority 1999, published 2009).

Settings: LUVs of 190 nm average particle size, pH gradient using ammonium sulfate; 50% mouse serum at 37° C.

leakage of drug out of the LUVs: rapidly leaked out
Structure (SMILES): O=C(O)c1cn(C2CC2)c2cc(N3CCNCC3)c(F)cc2c1=O [ciprofloxacin]
